Data on 88 compounds can be found in a melting point compilation (Tetko et al.; mined from patent text by program, amines drawn as free bases though some values may be those of a salt).

Molecules are shown by their SMILES.

Compound `N=C(Nc1ccc2c(C3CN4CCC3CC4)c[nH]c2c1)c1cccs1` (stereo not drawn) yielded a melting point of 144 to 146 °C.

`COc1cc(NC(=O)OCCCN2CCN(c3ccc(Cl)cc3)CC2)cc(OC)c1OC` returned a melting point of 174 °C.

`COc1ccccc1Nc1ccc2c(c1)OCc1cc([N+](=O)[O-])ccc1C2=O` came in with a melting point of 200 °C.

`Cc1nnc(-c2sc(N3CCN(Cc4ccccc4)C3=O)nc2C)[nH]1` returned a melting point of 284 to 287 °C.

For the compound `COc1ccccc1NC(=O)Nc1nc(N2CCC(O)CC2)nc(N(CCC(=O)O)Cc2ccc(Cl)c(Cl)c2)n1`, the melting point was in the range of 121 to 124 °C.

With `Cc1cccc(NC(=O)NC2C(=O)Nc3ccccc3NC2=O)c1`, the melting point was above 300 °C.

In turn, `O=C(CCCCC(=O)N1CCN(c2cnccn2)CC1)c1ccc(Cl)cc1` yielded a melting point of 138 to 140 °C.

Turning to `c1cnn2cnnc2c1`, the melting point was in the range of 140 to 141 °C.

On to `CCCC1CC1(C(=O)Nc1ccc(Br)cc1C)C(=O)OC` (stereo not drawn), for which the melting point was 60 °C.

As for `COc1cc(C(=O)c2cnc3ccccc3c2)ccc1OCc1ccccc1`, the melting point fell in the range of 110 to 111 °C.

`C#CCn1c(-c2ccccc2)nc(CC)c(O)c1=O` displayed a melting point of 152 to 154 °C.

Consider `Cc1ccc2c(c1)COC21CCN(CCCCCCN2CCC3(CC2)OCc2cc(C)ccc23)CC1`, for which the melting point lay within 113 to 116 °C.

Regarding `O=C(c1cc2ccccc2o1)C12CC3CC(CC(C3)C1)C2`, the melting point is 129 to 131 °C.

Compound `COc1ccc(CCC(=O)C2CCC3C4CCc5cc(C(=O)O)ccc5C4CCC23C)cc1` (stereo not drawn) displayed a melting point of 178 to 179 °C.

With `CCc1cc2c(c(CC)n1)c(C)c(C)c(=O)n2Cc1ccc(-c2ccccc2-c2nnn(C(c3ccccc3)(c3ccccc3)c3ccccc3)n2)cc1`, the melting point fell in the range of 159 to 160 °C.

As to `OC1CSC(Oc2cccc(-c3cccc(Cl)n3)c2)C(O)C1O` (stereo not drawn), the melting point lay within 180 to 222 °C.

Take `O=C1CCn2ncnc2N1`: the melting point lay within 276 to 280 °C.

On to `Cc1c(O)cc(O)c(C)c1C(=O)OCC(Cl)(Cl)Cl`, for which the melting point lay within 132 to 133 °C.

Regarding `O=C(O)C(CC1CC2CCN1CC2)(c1ccccc1)c1ccccc1` (stereo not drawn), the melting point is 180 to 185 °C.

`CC1(C)CC(=O)C=C(OC(=O)c2cccc3nnsc23)C1` registered a melting point of 131 to 133 °C.

As for `CN(C)CCc1cccc(OCCCCN2C(=O)c3ccccc3C2=O)c1`, the melting point was 52 to 53 °C.

`COc1cc(-n2cccn2)ccc1-n1cc(OC)c(=O)c(C(C)=O)n1` yielded a melting point of 193 to 196 °C.

Regarding `COc1ccc2c(c1)C(=O)CC21CCCC1`, the melting point is 80 °C.

Consider `C#CCN(c1ccc(C(=O)OC(C)(C)C)c(F)c1)C1CCc2cc3nc(C)[nH]c(=O)c3cc21` (racemic), for which the melting point is 248 to 250 °C.

With `COC(=O)CN(C(=O)CCCOc1ccc2c(c1)CN1CC(=O)NC1=N2)C1CCCCC1`, the melting point lay in the range of 185 to 186 °C.

`O=C(NC(Cc1ccc(OCC2CC2)cc1)C(=O)O)c1cn2cc(-c3ccc(Cl)cc3)ccc2n1` (stereo not drawn) returned a melting point of 276 °C.

For the compound `CCCCOc1c(CN2C(=O)c3ccccc3C2=O)n(CCNC(=O)OC)c(=O)c2cc(Cl)c(Cl)cc12`, the melting point lay in the range of 241 to 243 °C.

In the case of `COC(=O)NNCc1ccc(Cl)cc1Cl`, the melting point was 82 to 83 °C.

As to `COC[C@H]1CCCN1C(=O)c1cc(-c2ccccc2)c(=O)n2c1-c1ccccc1C2`, the melting point fell in the range of 130 to 131 °C.

Regarding `Cc1cc(O)c(C)c(C)c1OCc1ccccc1`, the melting point fell in the range of 101 to 103 °C.

`CC(=O)NCC=C(c1ccc(-c2ccccc2)cc1)c1ccc(-c2ccccc2)cc1` returned a melting point of 246 to 249 °C.

`CNC(=O)C1(N2C(=O)c3cccc(NC(C)=O)c3C2=O)CCCCC1`: the melting point was 205 to 208 °C.

In the case of `Cc1c(-c2ccc(OC(C)C)cc2)n(Cc2ccc(OCCO)cc2)c2ccc(OCc3ccccc3)cc12`, the melting point lay within 129 to 131 °C.

Consider `COc1ccc(CC(=O)c2cc(OC)cc(OC)c2)cc1`, for which the melting point fell in the range of 93 to 94 °C.

`CCOC(=O)c1c(C)[nH]c(-c2ccncc2)c1C` had a melting point of 180 to 182 °C.

As to `CC(C)(C)c1ccc(OP2N(C(C)(C)C)P(Oc3ccc(C(C)(C)C)cc3C(C)(C)C)N2C(C)(C)C)c(C(C)(C)C)c1` (stereo not drawn), the melting point fell in the range of 205 to 210 °C.

In turn, `C#CCOc1nc(NN)c(C(F)(F)F)cc1Cl` yielded a melting point of 98 to 102 °C.

Regarding `CC(=O)N1CCC(C(=O)c2nccn2CCc2ccccc2)CC1`, the melting point was in the range of 113 to 116 °C.

On to `COC(C)=CC(=O)NC1CCCCC1`, for which the melting point was determined as 109 °C.

With `COc1ccc(Cn2c(=S)[nH]c(=O)c3[nH]c(C(C)C)nc32)cc1OCc1ccccc1`, the melting point is 280 to 281 °C.

Compound `CN1CCN(c2cccc3c2CC(=O)CC3)CC1` showed a melting point above 85 °C.

For the compound `C#CCCn1ncc2c(N)c(C(=O)OCC)c(C)nc21`, the melting point is 101 to 103 °C.

Regarding `COc1ccc(C2(C#Cc3ccc(Cl)cc3)CCC(=O)CC2)cc1OC1CCCC1`, the melting point was 104 to 105 °C.

On to `CCOC(=O)CNC(=O)CC(O)CBr` (stereo not drawn), for which the melting point fell in the range of 59 to 61 °C.

For `CN1CCN(c2ccc(C=CC(=O)N3CCc4c([nH]c5ccccc45)C3c3ccc4c(c3)CCO4)cn2)CC1` (stereo not drawn), the melting point is above 260 °C.

As to `COCCc1nc2c(N)nc3ccccc3c2n1CCCNC(=S)NC1CCCCC1`, the melting point lay within 199 to 200 °C.

On to `COc1cc(C=O)ccc1OCc1ccc2ccccc2c1`, for which the melting point fell in the range of 107 to 108 °C.

In the case of `O=C1Nc2cc(C(F)(F)F)cnc2C1C(=O)OCc1ccccc1` (stereo not drawn), the melting point was above 250 °C.

Compound `N#CCNC(=O)C(Sc1nc2cc(Cl)ccc2s1)c1ccccc1` (stereo not drawn) had a melting point of 167 to 169 °C.

As to `Nc1cccc(CN/C=C2\C(=O)NC(=O)c3ccc(Br)cc32)c1`, the melting point was in the range of 214 to 215 °C.

As for `Fc1ccc(-c2ncn(CCCN3CCOCC3)c2-c2ccncc2)cc1`, the melting point lay in the range of 149 to 150 °C.

The compound `CN(CC(=O)[C@H](Cc1ccccc1)NC(=O)N1CCOCC1)C(=O)N1CCC[C@H]1C(=O)O` displayed a melting point of 75 to 90 °C.

In turn, `N#Cc1cc([N+](=O)[O-])ccc1Oc1ccc(Cl)cc1` yielded a melting point of 163 to 164 °C.

`Nc1cccc(N)c1Cl`: the melting point fell in the range of 82 to 83.5 °C.

`O=C(CCC1CCCC1)Nc1cccc2ncccc12` showed a melting point of 135 to 138 °C.

Turning to `CNS(=O)(=O)c1cc(C2(O)CCC(=O)N2C)ccc1Cl` (stereo not drawn), the melting point was in the range of 147 to 150 °C.

Take `Cc1csc2[nH]c(=O)n(Cc3ccc(Br)cc3F)c(=O)c12`: the melting point fell in the range of 296 to 298 °C.

For `Cc1cc2nc(O)c(-c3c(F)cc(F)cc3F)c(O)n2n1`, the melting point amounted to 304 °C.

Take `N#Cc1ccc2c(c1)Nc1ccc(Cl)cc1S2`: the melting point came out at 235 °C.

Consider `CSc1cccc(Oc2ncc(F)cc2C(=O)N[C@@H]2CCCC[C@H]2CO)c1` (relative stereo), for which the melting point was in the range of 128 to 129 °C.

In turn, `Cc1nc2cnccc2n1-c1ccc(C2=Nc3ccccc3NC(=O)C2)cn1` gave a melting point of 208 to 210 °C.

`COc1ccc([C@@H](CC(N)=O)N2Cc3ccccc3C2=O)cc1OC` yielded a melting point of 191 to 193 °C.

In turn, `COC(=O)Cc1ccc(O)c(NC(=O)c2c(C)c(OC)c(C)c(C)c2OC)c1` gave a melting point of 98 to 100 °C.

`O=C(O)c1c(C=C2CC2)c2ccccc2n1Cc1cccc(C(F)(F)F)c1` yielded a melting point of 148 to 150 °C.

`COc1ccc2c(c1)C(=O)NCc1c(-c3nc(C4CC4)no3)ncn1-2` showed a melting point of 245 °C.

Turning to `CCCCN1CC2CN(S(=O)(=O)c3ccc(NC(C)=O)cc3)CC(C1)C2(C)C`, the melting point was determined as 130 °C.

The compound `N#Cc1[nH]ccc1-c1ccc(Cl)cc1` showed a melting point of 114 to 115 °C.

`Cc1nc2cnccc2n1-c1ccc(C2=Cc3nccn3-c3cc(Cl)c(Cl)cc3N2C)cc1` gave a melting point of 268 to 270 °C.

With `CCNc1nc(Nc2ccccc2)ncc1C=CC(=O)OCC`, the melting point lay in the range of 125 to 126 °C.

For the compound `COC(=O)c1cccc2[nH]c(-c3ccc(Cl)cc3)c(C=O)c12`, the melting point fell in the range of 221 to 222 °C.

Take `COc1ccc(S(=O)(=O)n2ccc3ccnc(-c4ccc(O)cc4)c32)cc1`: the melting point was 179 to 182 °C.

For the compound `COc1ccc(-c2coc3cc(O)ccc3c2=O)c(OC)c1`, the melting point was 238 to 240 °C.

For `FC(F)c1ccccc1C=C1c2ccccc2CCc2ccccc21`, the melting point turned out to be 13.3 °C.

Turning to `CN1CCN(C(=O)NC(CS)Cc2ccccc2)CC1` (single isomer, unassigned; (-)), the melting point is 68 to 70 °C.

`Cn1ccc2cc(N3Cc4ccc(OC(F)F)cc4C3=O)ccc21` showed a melting point of 180 to 182 °C.

In the case of `CCOC(=O)C(NC(C)=O)(C(=O)OCC)c1ccc([N+](=O)[O-])cn1`, the melting point fell in the range of 82 to 83 °C.

In the case of `CCNc1nc(OC)c(C(=O)NCC2CCCN2CC)nc1Cl` (stereo not drawn), the melting point lay within 167 to 169 °C.

Turning to `Cc1ccc(S(=O)(=O)OCC2C(CC(C)C3CCC4C(O)CCCC34C)N(C)OC2(C)C)cc1` (stereo not drawn), the melting point lay within 114 to 115 °C.

On to `CSc1ccccc1C(=O)Nc1ccc(C(=O)N2Cc3ccccc3Cc3ccccc32)cc1`, for which the melting point lay in the range of 222 to 225 °C.

`O=C(O)C(Cc1ccccc1)Oc1ccc2cc(-c3ccc(-c4ccccc4)[nH]3)ccc2c1` (stereo not drawn) returned a melting point of 176 to 178 °C.

On to `CN[C@@H](C)[C@@H]1CCN(c2c(F)cc3c(=O)[nH]c(=O)n(C4CC4)c3c2C)C1`, for which the melting point was above 250 °C.

Regarding `CSc1sc(-c2ccn(C)n2)c2c1C(=O)C(=CO)C(C)(C)C2`, the melting point fell in the range of 145 to 148 °C.

With `CC(=O)c1c[nH]c2cc(O)ccc12`, the melting point lay in the range of 135 to 140 °C.

For the compound `Cc1c(-c2ccncc2)sc2c1C(=O)CCC2`, the melting point lay within 129 to 130 °C.

Compound `CCCc1c(OCCCCCOc2ccccc2OCC(=O)O)ccc2c1OCCC2=O` came in with a melting point of 98 to 99 °C.

`CCC(=O)Oc1ccc(C(=O)CC)cc1F` registered a melting point of 104 to 106 °C.

`Cc1cccc(-c2nc(NCc3ccc(Cl)cc3)c3ccccc3n2)n1` gave a melting point of 210 to 212 °C.

`[N-]=[N+]=NCCOc1ccc(F)c2c1CC(=O)N2` gave a melting point of 147 to 148 °C.
